The target in experiment [1] is T1, ΔHis-Gαi3 (Homo sapiens, UniProt P08754).
T1 construct: Full-length human Gαi3 (UNIPROT entry P08754) cloned in a pET24d(+) plasmid; His-tag (N, cleaved yes); made in house; host or cells: E. coli BL21 Rosetta
Put plainly: Fluorescence polarization peptide binding, ΔHis-Gαi3. The settings on record: room temperature, n=3, Supplementary Fig. 5. How it is done:
(§1) Briefly, following chain elongation 5,6-carboxyfluorescein was activated with HATU and coupled to the resin-bound peptide at 65 °C for 1 h to yield the fluorescein-labelled peptides. The remaining steps were carried out as described above. Fluorescence polarization measurements were carried out in 384-well plates (Black OptiPlate-384F, Perkin Elmer). […] Fluorescence polarization (excitation 485±10 nm/emission 528±10 nm) was measured every 2 min for 30 min at room temperature in a Biotek H1 synergy plate reader to ensure that the signals were stable in time. Fluorescence polarization at different times was averaged, normalized and fitted to a one site binding hyperbola to determine the equilibrium dissociation constant (Kd). For mutants not reaching binding saturation, the maximal binding of Gαi3 WT measured in the same experimental set was considered 100% binding for normalization.

Experiment [2] deals with T2, His-Gαi3 L249V (Homo sapiens, UniProt P08754, L249V).
T2 construct: Full-length human Gαi3 (UNIPROT entry P08754) cloned in a pET24d(+) plasmid; made in house; host or cells: E. coli BL21 Rosetta
T2 sequence (P08754 whole entry L249V): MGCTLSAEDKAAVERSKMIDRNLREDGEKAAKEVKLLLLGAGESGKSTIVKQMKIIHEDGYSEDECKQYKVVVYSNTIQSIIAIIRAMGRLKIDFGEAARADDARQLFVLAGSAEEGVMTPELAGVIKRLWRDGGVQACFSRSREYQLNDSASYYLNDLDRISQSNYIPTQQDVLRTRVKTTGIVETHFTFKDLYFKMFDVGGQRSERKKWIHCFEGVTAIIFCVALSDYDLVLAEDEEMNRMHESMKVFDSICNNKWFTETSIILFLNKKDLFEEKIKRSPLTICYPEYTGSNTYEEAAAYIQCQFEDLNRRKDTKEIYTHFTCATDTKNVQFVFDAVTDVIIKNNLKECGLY
Put plainly: Fluorescence polarization peptide binding, Gαi3 L249V. The settings on record: peptide 0.025 μM, pH 7.4, room temperature, mean±s.e.m., n=3–7, Fig. 4d, read-out: Kd ± SEM. How it is done:
(§2) Human Gαi3 was expressed from the same plasmid as described for the NMR studies and purified as an uncleaved His-tagged protein. […] After sonication (four cycles, with pulses lasting 20 s and with 1 min interval between pulses to prevent heating), lysates were centrifuged at 12,000g for 20 min at 4 °C. […] The buffer was exchanged for 20 mM Tris-HCl, pH 7.4, 20 mM NaCl, 1 mM MgCl2, 1 mM DTT, 10 μM GDP and 5% (v/v) glycerol using a HiTrap Desalting column (GE Healthcare). Protein samples were stored at −80 °C.
(§3) Fluorescence polarization-based peptide-binding assays
as §1, with “The remaining steps were carried out as described above.” left out

Experiment [3] addresses T3, His-Gαi3 N256E (Homo sapiens, UniProt P08754, N256E).
T3 construct: Full-length human Gαi3 (UNIPROT entry P08754) cloned in a pET24d(+) plasmid; made in house; host or cells: E. coli BL21 Rosetta
Put plainly: Fluorescence polarization peptide binding, Gαi3 N256E. The conditions noted are these: peptide 0.025 μM, pH 7.4, room temperature, mean±s.e.m., n=3–7, Fig. 4d, read-out: Kd ± SEM. How it is done:
as §2, §3
as §1, with “The remaining steps were carried out as described above.” left out
(In general: Polarisation of emitted light reports the rotation of a fluorescent probe.)

Experiment [4] addresses T4, His-Gαi3 W211A (Homo sapiens, UniProt P08754, W211A).
T4 construct: Full-length human Gαi3 (UNIPROT entry P08754) cloned in a pET24d(+) plasmid; made in house; host or cells: E. coli BL21 Rosetta
Put plainly: Fluorescence polarization peptide binding, Gαi3 W211A. The conditions noted are these: peptide 0.025 μM, pH 7.4, room temperature, mean±s.e.m., n=3–7, Fig. 4d, read-out: Kd ± SEM. How it is done: as §2, §3
as §1, with “The remaining steps were carried out as described above.” left out

Experiment [5] addresses T5, His-Gαi3 F215A (Homo sapiens, UniProt P08754, F215A).
T5 construct: Full-length human Gαi3 (UNIPROT entry P08754) cloned in a pET24d(+) plasmid; made in house; host or cells: E. coli BL21 Rosetta
Put plainly: Fluorescence polarization peptide binding, Gαi3 F215A. The settings on record: peptide 0.025 μM, pH 7.4, room temperature, mean±s.e.m., n=3–7, Fig. 4d, read-out: Kd ± SEM. How it is done: as §2, §3
as §1, with “The remaining steps were carried out as described above.” left out

Experiment [6] deals with T6, His-Gαi3 K35A (Homo sapiens, UniProt P08754, K35A).
T6 construct: Full-length human Gαi3 (UNIPROT entry P08754) cloned in a pET24d(+) plasmid; made in house; host or cells: E. coli BL21 Rosetta
T6 sequence (P08754 whole entry K35A): as the sequence (P08754 whole entry L249V) above, with K35A, V249L counted along it
The experiment is described as follows: Fluorescence polarization peptide binding, Gαi3 K35A. The settings on record: peptide 0.025 μM, pH 7.4, room temperature, mean±s.e.m., n=3–7, Fig. 4d, read-out: Kd ± SEM. How it is done: as §2, §3
as §1, with “The remaining steps were carried out as described above.” left out

The test system of experiment [7] is His-Gαi3 W211A and F215A. The experiment is described as follows: Gβγ-binding pull-down assay. Details: species or system human. The settings on record: bovine Gβ1γ1 100 nM, Gαi3 50 nM, 4 h, 4 °C, 30 μM GDP. How it is done:
Gβγ was purified from bovine retinas, which are primarily composed of Gβ1γ1 by purification of holotransducin from rod outer segment (ROS) membranes isolated from dark-adapted bovine followed by separation of the Gβ1γ1 complex from the α-subunit of transducin on a Hitrap Blue-sepharose column (GE healthcare), and further purification by anion exchange chromatography using a Hitrap-Q column.
For binding assays, Gβ1γ1 (100 nM final) was incubated in the absence or presence of human His-tagged Gαi3 WT or mutants (50 nM final) in 250 μl of binding buffer (50 mM Tris-HCl, pH 7.4, 100 mM NaCl, 0.4% (v:v) NP-40, 5 mM MgCl2, 10 mM imidazole, 0.1 mg ml^−1 BSA, 1 mM DTT and 30 μM GDP) for 4 h at 4 °C with rotation. A volume of 25 μl of BSA-blocked HisPur cobalt resin (Pierce) were added to each tube and the incubation continued for 90 min. Beads were washed four times with 1 ml of binding buffer and resin-bound proteins eluted by adding Laemmli sample buffer supplemented with 100 mM EDTA and boiling for 5 min. […]

The test system of experiment [8] is Gαi3-GDP. Put plainly: NMR perturbation of Gαi3-GDP backbone amide signals. The experiment is classed as binding, human. The conditions noted are these: fivefold molar excess of peptide, 30 °C, pH 7.0. How it is done:
Full-length human Gαi3 (UNIPROT entry P08754) cloned in a pET24d(+) plasmid (a generous gift from Ichio Shimada, University of Tokyo) was used to purify the protein used in NMR experiments. For this, protein expression was induced in BL21 Rosetta (Life Technologies) cell cultures with 1 mM IPTG for 16 h at 23 °C in a modified M9 minimal medium containing 1 g l^−1 15N-NH4Cl, 2 g l^−1 2H-^13C-glucose and 1 g l^−1 of ^2H-^13C-^15N Celtone base powder in ^2H2O with 30 mg l^−1 kanamycin and 34 mg l^−1 chloramphenicol. The pelleted cells were lysed by sonication in 50 mM Tris, 200 mM NaCl, 100 mM KCl and 1 mM DTT at pH 8.0, and the supernatant was loaded on a Ni^2+-loaded His-Trap FF column. […]
All NMR data were measured on a Bruker Avance III 800 MHz (18.8 T) spectrometer equipped with a cryogenically cooled triple resonance z-gradient probe, processed with Topspin (Bruker) and analysed with Sparky. […] Gαi3 spectra were recorded at 30 °C on ^2H-^13C-^15N–Gαi3 samples with a threefold molar excess of GDP in 10 mM HEPES (pH 7.0) with 10 mM MgCl2, 5 mm DTT, 0.01% NaN3 and 5% ^2H2O. […] The assignment of Gαi3 resonances in the presence of a fivefold molar excess of GIV fragment 1,671–1,696 was achieved from the joint analysis of an HNCO and ^1H–^15N TROSY spectra recorded along a titration (at molar ratios 1:0, 1:0.2,1:0.5, 1:1, 1:2 and 1:5). […]

Experiment [9] relates to His-Gαi3 mutants in complex with Gβ1γ1. Put plainly: Steady-state GTPase assay with rhodopsin. The format is biochemical, human. The conditions noted are these: rhodopsin 20 nM, Gαi3/Gβ1γ1 100/200 nM, 30 °C. How it is done: Steady-state GTPase assays with rhodopsin
ROS membranes washed with urea were prepared as described earlier and used as the source of rhodopsin[67]. Human His-tagged Gαi3 WT and mutants (20–25 μM) were incubated overnight at 4 °C with twofold excess Gβ1γ1 in 20 mM Tris-HCl, pH 7.4, 20 mM NaCl, 1 mM MgCl2, 1 mM DTT, 10 μM GDP and 5% (v/v) glycerol. Bovine rhodopsin was freshly solubilized from urea-washed ROS membranes in assay buffer (20 mM HEPES, pH 7.5, 100 mM NaCl, 5 mM MgCl2, 1 mM DTT and 0.01% (w:v) dodecylmaltoside) for each experiment. Gαi3/Gβ1γ1 (100/200 nM final) and rhodopsin (20 nM final) were incubated in ice for 30 min under ambient light in assay buffer. Reactions were initiated at 30 °C by adding an equal volume of assay buffer containing 1 μM [γ-^32P]GTP (∼50 c.p.m. fmol^−1) and stopped in duplicates by mixing 25 μl of the reaction with 975 μl of ice-cold 5% (w/v) activated charcoal in 20 mM H3PO4, pH 3. Samples were then centrifuged for 10 min at 10,000g, and 500 μl of the resultant supernatant were scintillation-counted to quantify the amount of [^32P]Pi released. Background [^32P]Pi detected at 15 min in the absence of G protein was subtracted from each reaction (<5% of the counts detected in the presence of G proteins). Results were expressed as per cent of the activity of Gi3 WT without rhodopsin.

Where a SMILES comes first, the peptide text is derived from it. The star is where a group is joined. 6FAM = O=C1OC2(c3ccc(O)cc3Oc3cc(O)ccc32)c2cc(C(=O)*)ccc21

T5 sequence (P08754 whole entry F215A): as the sequence (P08754 whole entry L249V) above, with F215A, V249L counted along it
T1 sequence (P08754 whole entry, stated change not applied): as the sequence (P08754 whole entry L249V) above, with V249L counted along it
T3 sequence (P08754 whole entry N256E): as the sequence (P08754 whole entry L249V) above, with V249L, N256E counted along it
T4 sequence (P08754 whole entry W211A): as the sequence (P08754 whole entry L249V) above, with W211A, V249L counted along it

Regarding `CC[C@H](C)[C@H](NC(=O)[C@H](CCC(N)=O)NC(=O)[C@@H](NC(=O)[C@H](CO)NC(=O)[C@@H](NC(=O)[C@H](CC(C)C)NC(=O)[C@H](CCCCN)NC(=O)[C@H](CC(N)=O)NC(=O)[C@H](CO)NC(=O)[C@H](CCC(=O)O)NC(=O)[C@H](CCC(=O)O)NC(=O)[C@H](CC(C)C)NC(=O)[C@H](Cc1ccccc1)NC(=O)[C@H](CCC(N)=O)NC(=O)[C@H](CCC(N)=O)NC(=O)[C@H](CC(C)C)NC(=O)[C@@H](NC(=O)[C@@H](NC(=O)[C@@H](NC(=O)[C@H](CCC(=O)O)NC(=O)[C@H](CO)NC(=O)CNC(=O)[C@@H]1CCCN1C(=O)[C@H](CO)NC(=O)CNC(=O)[C@@H](NC(=O)[C@H](CCCCN)NC(=O)c1ccc2c(c1)C1(OC2=O)c2ccc(O)cc2Oc2cc(O)ccc21)[C@@H](C)O)C(C)C)C(C)C)[C@@H](C)O)[C@@H](C)O)C(C)C)C(=O)N[C@@H](CCCCN)C(=O)N[C@@H](CO)C(=O)N[C@@H](CO)C(=O)N[C@@H](CO)C(N)=O` [GIV], the “affinity for ΔHis-Gαi3 compared with His-Gαi3” value in experiment [1] was “the same affinity”. Besides, the Kd in experiment [2] is 1.37 ± 0.199 µM; in experiment [3], more than 20 µM; in experiment [4], more than 20 µM; in experiment [5], more than 10 µM; in [6], more than 10 µM.

`CC[C@H](C)[C@H](NC(=O)[C@H](CC(C)C)NC(=O)[C@H](CCC(=O)O)NC(=O)[C@H](Cc1ccccc1)NC(=O)[C@H](Cc1ccccc1)NC(=O)[C@H](CCC(=O)O)NC(=O)[C@H](CCC(=O)O)NC(=O)[C@H](C)NC(=O)[C@H](CCC(=O)O)NC(=O)[C@H](CC(=O)O)NC(=O)c1ccc2c(c1)C1(OC2=O)c2ccc(O)cc2Oc2cc(O)ccc21)C(=O)N[C@@H](CO)C(=O)N[C@@H](CCCCN)C(=O)N[C@@H](C)C(=O)N[C@@H](CCC(N)=O)C(=O)N[C@@H](CO)C(=O)N[C@@H](CC(N)=O)C(=O)N[C@@H](CCCNC(=N)N)C(=O)N[C@@H](C)C(=O)N[C@@H](CC(=O)O)C(=O)N[C@@H](CC(=O)O)C(=O)N[C@@H](CCC(N)=O)C(=O)N[C@@H](CCCNC(=N)N)C(=O)NCC(=O)N[C@@H](CC(C)C)C(=O)N[C@@H](CC(C)C)C(=O)N[C@@H](CCCNC(=N)N)C(=O)N[C@@H](CCCCN)C(=O)N[C@@H](CCC(=O)O)C(=O)N[C@@H](CC(=O)O)C(=O)N[C@@H](CC(C)C)C(=O)N[C@H](C(=O)N[C@@H](CC(C)C)C(=O)N1CCC[C@H]1C(=O)N[C@@H](CCC(=O)O)C(=O)N[C@@H](Cc1ccccc1)C(=O)N[C@@H](CC(C)C)C(=O)N[C@@H](CCCNC(=N)N)C(N)=O)C(C)C` [RGS12, reference compound] (6FAM-DEAEEFFELISKAQSNRADDQRGLLRKEDLVLPEFLR-NH2): the Kd in experiment [2] was determined as 0.084 ± 0.009 µM.

As for “Gβγ: retinal Gβγ (Gβ1γ1) purified from bovine retinas”, the “binding to Gαi3 W211A and F215A” value in experiment [7] is “abolished”.

Consider “KTGSPGSEVVTLQQFLEESNKLTSVQ [GIVpept, peptide corresponding to GIV amino acids 1,671–1,696]”, for which, in [8], the “overall decrease in signal intensities” value is approximately 15%.

In the case of “rhodopsin: bovine rhodopsin solubilized from urea-washed ROS membranes”, the “activation of Gαi3 mutants” value in experiment [9] (K35A, L249H, S252D and N256E) was “activated efficiently”. The “activation of Gαi3 ΔC9” value in experiment [9] (ΔC9) was “completely abolished”.

As usually defined, the Kd is a measure of binding affinity in units of concentration.

(Values after paper PMC5454376, “Molecular mechanism of Gαi activation by non-GPCR proteins with a Gα-Binding and Activating motif” (Nature Communications, 2017).)
